One test deals with 5-HT2A (Homo sapiens (Human), UniProt P28223). The test is described as follows: Radioligand binding assay, [^3H]5-HT competition, 5-HT2A. The note with it: [^3H]5-HT radioligand, membranes of HEK293 cells expressing recombinant 5-HT2A; Ki from IC50 by Cheng-Prusoff; read-out: 5-HT2A serotonin binding Ki value.
Sequence of 5-HT2A (P28223 whole entry): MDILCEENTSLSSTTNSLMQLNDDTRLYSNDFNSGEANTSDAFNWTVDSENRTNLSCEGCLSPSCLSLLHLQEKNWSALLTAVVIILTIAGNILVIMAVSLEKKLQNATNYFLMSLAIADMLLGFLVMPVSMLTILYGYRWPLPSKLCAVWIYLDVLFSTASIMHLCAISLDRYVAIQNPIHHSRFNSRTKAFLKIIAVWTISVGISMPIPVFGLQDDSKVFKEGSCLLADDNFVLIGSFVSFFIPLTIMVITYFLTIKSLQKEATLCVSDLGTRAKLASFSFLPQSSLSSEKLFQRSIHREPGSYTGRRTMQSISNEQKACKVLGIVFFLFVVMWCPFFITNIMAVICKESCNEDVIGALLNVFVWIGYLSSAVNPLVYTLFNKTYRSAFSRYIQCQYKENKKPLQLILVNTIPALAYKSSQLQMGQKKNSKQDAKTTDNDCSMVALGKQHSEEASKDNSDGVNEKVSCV
By Ki is commonly meant a measure of affinity in units of concentration, obtained from inhibition or displacement. Take `Cc1ncnc(C)c1-c1cc(NC(=O)c2ccccc2F)ccc1OCCN1CCCC1` [Compound 298, N-(3-(4,6-dimethylpyrimidin-5-yl)-4-(2-(pyrrolidin-1-yl)ethoxy)phenyl)-2-fluorobenzamide]: the inhibition constant (Ki) was determined as 16.9 nM.
Same read-out and setting: under `Cc1ccccc1C(=O)Nc1ccc(OCCN2CCCC2)c(-c2c(C)ncnc2C)c1` [Compound 299, N-(3-(4,6-dimethylpyrimidin-5-yl)-4-(2-(pyrrolidin-1-yl)ethoxy)phenyl)-2-methylbenzamide] stands 20.6 nM; under `Cc1cccc(C(=O)Nc2ccc(OCCN3CCCC3)c(-c3c(C)ncnc3C)c2)c1` [Compound 300, N-(3-(4,6-dimethylpyrimidin-5-yl)-4-(2-(pyrrolidin-1-yl)ethoxy)phenyl)-3-methylbenzamide], 1.48 nM.
Same read-out and setting: next, `Cc1ccc(C(=O)Nc2ccc(OCCN3CCCC3)c(-c3c(C)ncnc3C)c2)cc1` [Compound 301, N-(3-(4,6-dimethylpyrimidin-5-yl)-4-(2-(pyrrolidin-1-yl)ethoxy)phenyl)-4-methylbenzamide]: 3.4 nM; `Cc1ncnc(C)c1-c1cc(NC(=O)[C@H]2C[C@@H](F)C2)ccc1OCCN1CCCC1` [Compound 302, (1s,3s)-N-(3-(4,6-dimethylpyrimidin-5-yl)-4-(2-(pyrrolidin-1-yl)ethoxy)phenyl)-3-fluorocyclobutane-1-carboxamide]: 3.18 nM; `Cc1ncnc(C)c1-c1cc(NC(=O)[C@H]2C[C@H](F)C2)ccc1OCCN1CCCC1` [Compound 303, (1r,3r)-N-(3-(4,6-dimethylpyrimidin-5-yl)-4-(2-(pyrrolidin-1-yl)ethoxy)phenyl)-3-fluorocyclobutane-1-carboxamide]: 9.36 nM.
As to `COc1cccc(CC(=O)Nc2ccc(OCCN3CCC3)c(-c3c(C)ncnc3C)c2)c1` [Compound 311, N-(4-(2-(azetidin-1-yl)ethoxy)-3-(4,6-dimethylpyrimidin-5-yl)phenyl)-2-(3-methoxyphenyl)acetamide], the Ki stood at 3.01 nM.
For `COc1ccc(CC(=O)Nc2ccc(OCCN3CCC3)c(-c3c(C)ncnc3C)c2)cc1` [Compound 313, N-(4-(2-(azetidin-1-yl)ethoxy)-3-(4,6-dimethylpyrimidin-5-yl)phenyl)-2-(4-methoxyphenyl)acetamide], the inhibition constant (Ki) was 1.7 nM.
The same measure, in the same setting: under `Cc1ncnc(C)c1-c1cc(NC(=O)Cc2ccc(F)cn2)ccc1OCCN1CCC1` [Compound 315, N-(4-(2-(azetidin-1-yl)ethoxy)-3-(4,6-dimethylpyrimidin-5-yl)phenyl)-2-(5-fluoropyridin-2-yl)acetamide] stands 12.6 nM; under `CCOC1CC1C(=O)Nc1ccc(OCCN2CCC2)c(-c2c(C)ncnc2C)c1` (stereo not shown) [Compound 317, N-(4-(2-(azetidin-1-yl)ethoxy)-3-(4,6-dimethylpyrimidin-5-yl)phenyl)-2-ethoxycyclopropane-1-carboxamide], 96.3 nM.
The same measure, in the same setting: next, `Cc1ncnc(C)c1-c1cc(NC(=O)c2cccc(F)c2)ccc1OCCN1CCC1` [Compound 320, N-(4-(2-(azetidin-1-yl)ethoxy)-3-(4,6-dimethylpyrimidin-5-yl)phenyl)-3-fluorobenzamide]: 1.77 nM; `Cc1cccc(C(=O)Nc2ccc(OCCN3CCC3)c(-c3c(C)ncnc3C)c2)c1` [Compound 322, N-(4-(2-(azetidin-1-yl)ethoxy)-3-(4,6-dimethylpyrimidin-5-yl)phenyl)-3-methylbenzamide]: 3.39 nM; `Cc1ccc(C(=O)Nc2ccc(OCCN3CCC3)c(-c3c(C)ncnc3C)c2)cc1` [Compound 323, N-(4-(2-(azetidin-1-yl)ethoxy)-3-(4,6-dimethylpyrimidin-5-yl)phenyl)-4-methylbenzamide]: 3.77 nM.
Regarding `Cc1ncnc(C)c1-c1cc(NC(=O)c2ccccc2C#N)ccc1OCCN1CCC1` [Compound 324, N-(4-(2-(azetidin-1-yl)ethoxy)-3-(4,6-dimethylpyrimidin-5-yl)phenyl)-2-cyanobenzamide], the Ki came out at 59700 nM.
Still for that read-out and setting: under `Cc1ncnc(C)c1-c1cc(NC(=O)c2ccc(C#N)cc2)ccc1OCCN1CCC1` [Compound 326, N-(4-(2-(azetidin-1-yl)ethoxy)-3-(4,6-dimethylpyrimidin-5-yl)phenyl)-4-cyanobenzamide] stands 13.7 nM.
With `Cc1cnn(C)c1C(=O)Nc1ccc(OCCN2CCC2)c(-c2c(C)ncnc2C)c1` [Compound 327, N-(4-(2-(azetidin-1-yl)ethoxy)-3-(4,6-dimethylpyrimidin-5-yl)phenyl)-1,4-dimethyl-1H-pyrazole-5-carboxamide], the Ki was 15.9 nM.
The same measure, in the same setting: next, `Cc1ncnc(C)c1-c1cc(NC(=O)C2(CF)CC2)ccc1OCCN1CCC1` [Compound 328, N-(4-(2-(azetidin-1-yl)ethoxy)-3-(4,6-dimethylpyrimidin-5-yl)phenyl)-1-(fluoromethyl)cyclopropane-1-carboxamide]: 13.6 nM; `Cc1ncnc(C)c1-c1cc(NC(=O)Cc2nccs2)ccc1OCCN1CCC1` [Compound 329, N-(4-(2-(azetidin-1-yl)ethoxy)-3-(4,6-dimethylpyrimidin-5-yl)phenyl)-2-(thiazol-2-yl)acetamide]: 11.5 nM; `Cc1ncnc(C)c1-c1cc(NC(=O)c2ncccc2F)ccc1OCCN1CCC1` [Compound 330, N-(4-(2-(azetidin-1-yl)ethoxy)-3-(4,6-dimethylpyrimidin-5-yl)phenyl)-3-fluoropicolinamide]: 334 nM.
The same measure, in the same setting: next, `Cc1ncnc(C)c1-c1cc(NC(=O)c2cnccc2F)ccc1OCCN1CCC1` [Compound 331, N-(4-(2-(azetidin-1-yl)ethoxy)-3-(4,6-dimethylpyrimidin-5-yl)phenyl)-4-fluoronicotinamide]: 23.7 nM; `Cc1ncnc(C)c1-c1cc(NC(=O)c2ccncc2F)ccc1OCCN1CCC1` [Compound 332, N-(4-(2-(azetidin-1-yl)ethoxy)-3-(4,6-dimethylpyrimidin-5-yl)phenyl)-3-fluoroisonicotinamide]: 18.6 nM.
Same read-out and setting: under `Cc1ncnc(C)c1-c1cc(NC(=O)c2ncncc2F)ccc1OCCN1CCC1` [Compound 333, N-(4-(2-(azetidin-1-yl)ethoxy)-3-(4,6-dimethylpyrimidin-5-yl)phenyl)-5-fluoropyrimidine-4-carboxamide] stands 224 nM.
As for `CC(=O)N1CCN(CCOc2ccc(NC(=O)C3CC3)cc2-c2c(C)ncnc2C)CC1` [Compound 334, N-[4-[2-(4-acetylpiperazin-1-yl)ethoxy]-3-(4,6-dimethylpyrimidin-5-yl)phenyl]cyclopropanecarboxamide], the Ki came out at 17.6 nM.
As for `Cc1ncnc(C)c1-c1cc(NC(=O)C2CC2)ccc1OCCN1CCC(CC(=O)O)CC1` [Compound 335, 2-[1-[2-[4-(cyclopropanecarbonylamino)-2-(4,6-dimethylpyrimidin-5-yl)phenoxy]ethyl]-4-piperidyl]acetic acid], the Ki was determined as 196 nM.
On the same count and under the same terms, next, `Cc1ncnc(C)c1-c1cc(NC(=O)C2CC2)ccc1OCCN1C[C@@H]2C[C@H]1CO2` [Compound 336, N-[3-(4,6-dimethylpyrimidin-5-yl)-4-[2-[(1S,4S)-2-oxa-5-azabicyclo[2.2.1]heptan-5-yl]ethoxy]phenyl]cyclopropanecarboxamide]: 6.42 nM; `Cc1ncnc(C)c1-c1cc(NC(=O)C2CC2)ccc1OCCN1[C@@H]2COC[C@H]1C2` [Compound 337, N-[3-(4,6-dimethylpyrimidin-5-yl)-4-[2-[(1S,5R)-3-oxa-6-azabicyclo[3.1.1]heptan-6-yl]ethoxy]phenyl]cyclopropanecarboxamide]: 7.29 nM; `Cc1ncnc(C)c1-c1cc(NC(=O)C2CC2)ccc1OCCN1CCN(C(=O)CO)CC1` [Compound 339, N-[3-(4,6-dimethylpyrimidin-5-yl)-4-[2-[4-(2-hydroxyacetyl)piperazin-1-yl]ethoxy]phenyl]cyclopropanecarboxamide]: 18.4 nM.
Same read-out and setting: under `Cc1ncnc(C)c1-c1cc(NC(=O)C2CC2)ccc1OCCN1CCN(C(=O)C(=O)O)CC1` [Compound 340, 2-[4-[2-[4-(cyclopropanecarbonylamino)-2-(4,6-dimethylpyrimidin-5-yl)phenoxy]ethyl]piperazin-1-yl]-2-oxo-acetic acid] stands 374 nM.
For the molecule `Cc1ncnc(C)c1-c1cc(NC(=O)C2CC2)ccc1OCCN1CCN(C=O)CC1` [Compound 341, N-[3-(4,6-dimethylpyrimidin-5-yl)-4-[2-(4-formylpiperazin-1-yl)ethoxy]phenyl]cyclopropanecarboxamide], the Ki worked out at 9.84 nM.
As for `Cc1ncnc(C)c1-c1cc(NC(=O)C2CC2)ccc1OCCN1CCN(S(C)(=O)=O)CC1` [Compound 342, N-[3-(4,6-dimethylpyrimidin-5-yl)-4-[2-(4-methylsulfonylpiperazin-1yl)ethoxy]phenyl]cyclopropanecarboxamide], the Ki amounted to 6.95 nM.
The same measure, in the same setting: under `Cc1ncnc(C)c1-c1cc(NC(=O)C2CC2)ccc1OCCN1CCN2C(=O)OCC2C1` (stereo not shown) [Compound 343, N-[3-(4,6-dimethylpyrimidin-5-yl)-4-[2-(3-oxo-5,6,8,8a-tetrahydro-1H-oxazolo[3,4-a]pyrazin-7-yl)ethoxy]phenyl]cyclopropanecarboxamide] stands 48.4 nM; under `Cc1ncnc(C)c1-c1cc(NC(=O)C2CC2)ccc1OCCN1CC2(COC2)C1` [Compound 345, N-(4-(2-(2-oxa-6-azaspiro[3.3]heptan-6-yl)ethoxy)-3-(4,6-dimethylpyrimidin-5-yl)phenyl)cyclopropanecarboxamide], 19.5 nM; under `Cc1ncnc(C)c1-c1cc(NC(=O)C2CC2)ccc1OCCN1CCN2C(=O)CCC2C1` (stereo not shown) [Compound 346, N-(3-(4,6-dimethylpyrimidin-5-yl)-4-(2-(6-oxohexahydropyrrolo[1,2-a]pyrazin-2 (1H)-yl)ethoxy)phenyl)cyclopropanecarboxamide], 31 nM.

The test is the same for the next values; noted with them: read-out: 5-HT2A serotonin binding Ki value.
For `Cc1ncnc(C)c1-c1cc(NC(=O)C2CC2)ccc1OCCN1CCC(CC(=O)O)C1` (stereo not shown) [Compound 338, 2-[1-[2-[4-(cyclopropanecarbonylamino)-2-(4,6-dimethylpyrimidin-5-yl)phenoxy]ethyl]pyrrolidin-3-yl]acetic acid], the inhibitory constant (Ki) came to 485 nM.

These data come from patent publication US20250270172A1, “Pyrimidine Derivatives As Modulators of the 5-HT2A Serotonin Receptor Useful For The Treatment of Disorders Related Thereto” (Arena Pharmaceuticals, Inc., priority 2020, published 2025).
